Measurements published in US20130331412A9, “Pharmaceutical Compositions and Administrations Thereof” (VERTEX PHARMACEUTICALS INCORPORATED, priority 2010, published 2013).

Experiments:
Experiment in all cases: FRT cell Ussing chamber chloride transport assay
Assay type in all cases: cell-based
human CFTR mutant D1152H = target: T1, human CFTR mutant D1152H (Homo sapiens, UniProt P13569, D1152H); settings: FRT cells expressing D1152H CFTR
T1 construct: expressed in transfected cells
Description: (§1) DNA cloning: Wild-type CFTR coding region was inserted into pcDNA5/FRT (Invitrogen, San Diego, Calif.) between EcoRV and ApaI.
(§2) Single CFTR gene mutations were introduced into the wild-type CFTR coding sequence by using QuickChange XL site-directed mutagenesis kit (Stratagene, Cambridge, UK). The CFTR coding region as well as its promoter sequence and 3′ untranslated sequence was fully sequenced to confirm the mutagenesis reaction.
(§3) The CFTR gene was stably expressed in Fisher rat thyroid (FRT) cells through FlpIn system. The FRT-FlpIn host cell line was generated by stably transfecting FRT cells with pFRT/lacZeo. The single integration of a FRT site was confirmed by Southern blot. After the mutant CFTR DNA was transfected into the FRT-FlpIn host cell line, the cells were incubate at 37° C. in Coon's modified Ham's F12 containing 10% FBS, 1% Pen/Strep, and 36 ml of Na− Bicarbonate for up to 8 passages under hygromycin selection (200 ug/ml).
(§4) All cells were grown on Costar® Snapwell™ cell culture inserts at maintained at 37° C. prior to recording. The cell culture inserts were mounted into an Ussing chamber (VCC MC8; Physiologic Instruments, Inc., San Diego, Calif.) to record ISC in the voltage-clamp mode (Vhold=0 mV). For FRT cells, the basolateral membrane was permeabilized with 360 μg/ml Nystatin and a basolateral to apical Cl− gradient was established. The basolateral bath solution contained (in mM); 135 NaCl, 1.2 CaCl2, 1.2 MgCl2, 2.4 K2HPO4, 0.6 KHPO4, 10 N-2-hydroxyethylpiperazine-N′-2-ethanesulfonic acid (HEPES), and 10 dextrose (titrated to pH 7.4 with NaOH). The apical NaCl was replaced by equimolar Na+ gluconate (titrated to pH 7.4 with NaOH). For HBE cells, the ISC was measured in the presence of a basolateral to apical Cl− gradient. The normal Cl− solution contained (in mM) 145 NaCl, 3.3 K2HPO4, 1.2 MgCl2, 1.2 CaCl2, 10 Glucose, 10 HEPES (pH adjusted to 7.35 with NaOH) and the low Cl− solution contained (in mM) 145 NaGluconate, 1.2 MgCl2, 1.2 CaCl2, 10 glucose, 10 HEPES (pH adjusted to 7.35 with NaOH). All recordings were digitally acquired using a Acquire and Analyze software (version 2; Physiologic Instruments, Inc. San Diego, Calif.).
(§5) The 10 μM forskolin stimulated response in FRT cell expressing different mutant CFTR forms or in HBE cells isolated from CF patients was normalized to the 10 μM forskolin-stimulated response in FRT cells expressing wild-type CFTR or in HBE isolated from non-CF individuals and expressed as % wild-type CFTR. In HBE, amiloride was added prior to forskolin application to block the epithelial Na+ channel.

human CFTR mutant S549N = target: T2, human CFTR mutant S549N (Homo sapiens, UniProt P13569, S549N); settings: FRT cells expressing S549N CFTR
T2 construct: expressed in transfected cells; host or cells: Fisher rat thyroid (FRT) FlpIn cells, pcDNA5/FRT
Description: as §1, §2, §3, §4, §5

human CFTR mutant S945L = target: T3, human CFTR mutant S945L (Homo sapiens, UniProt P13569, S945L); settings: FRT cells expressing S945L CFTR
T3 construct: expressed in transfected cells; host or cells: Fisher rat thyroid (FRT) FlpIn cells, pcDNA5/FRT
Description: as §1, §2, §3, §4, §5

human CFTR mutant S1255P = target: T4, human CFTR mutant S1255P (Homo sapiens, UniProt P13569, S1255P); settings: FRT cells expressing S1255P CFTR
T4 construct: expressed in transfected cells; host or cells: Fisher rat thyroid (FRT) FlpIn cells, pcDNA5/FRT
Description: as §1, §2, §3, §4, §5

human CFTR mutant P67L = target: T5, human CFTR mutant P67L (Homo sapiens, UniProt P13569, P67L); settings: FRT cells expressing P67L CFTR
T5 construct: expressed in transfected cells; host or cells: Fisher rat thyroid (FRT) FlpIn cells, pcDNA5/FRT
Description: as §1, §2, §3, §4, §5

human CFTR mutant R352Q = target: T6, human CFTR mutant R352Q (Homo sapiens, UniProt P13569, R352Q); settings: FRT cells expressing R352Q CFTR
T6 construct: expressed in transfected cells; host or cells: Fisher rat thyroid (FRT) FlpIn cells, pcDNA5/FRT
Description: as §1, §2, §3, §4, §5

human CFTR mutant R1070W = target: T7, human CFTR mutant R1070W (Homo sapiens, UniProt P13569, R1070W); settings: FRT cells expressing R1070W CFTR
T7 construct: expressed in transfected cells; host or cells: Fisher rat thyroid (FRT) FlpIn cells, pcDNA5/FRT
Description: as §1, §2, §3, §4, §5

human CFTR mutant S549R = target: T8, human CFTR mutant S549R (Homo sapiens, UniProt P13569, S549R); settings: FRT cells expressing S549R CFTR
T8 construct: expressed in transfected cells; host or cells: Fisher rat thyroid (FRT) FlpIn cells, pcDNA5/FRT
Description: as §1, §2, §3, §4, §5

human CFTR mutant G1244E = target: T9, human CFTR mutant G1244E (Homo sapiens, UniProt P13569, G1244E); settings: FRT cells expressing G1244E CFTR
T9 construct: expressed in transfected cells; host or cells: Fisher rat thyroid (FRT) FlpIn cells, pcDNA5/FRT
Description: as §1, §2, §3, §4, §5

human CFTR mutant E56K = target: T10, human CFTR mutant E56K (Homo sapiens, UniProt P13569, E56K); settings: FRT cells expressing E56K CFTR
T10 construct: expressed in transfected cells; host or cells: Fisher rat thyroid (FRT) FlpIn cells, pcDNA5/FRT
Description: as §1, §2, §3, §4, §5

human CFTR mutant R347H = target: T11, human CFTR mutant R347H (Homo sapiens, UniProt P13569, R347H); settings: FRT cells expressing R347H CFTR
T11 construct: expressed in transfected cells; host or cells: Fisher rat thyroid (FRT) FlpIn cells, pcDNA5/FRT
Description: as §1, §2, §3, §4, §5

human CFTR mutant D1270N = target: T12, human CFTR mutant D1270N (Homo sapiens, UniProt P13569, D1270N); settings: FRT cells expressing D1270N CFTR
T12 construct: expressed in transfected cells; host or cells: Fisher rat thyroid (FRT) FlpIn cells, pcDNA5/FRT
Description: as §1, §2, §3, §4, §5

human CFTR mutant F1074L = target: T13, human CFTR mutant F1074L (Homo sapiens, UniProt P13569, F1074L); settings: FRT cells expressing F1074L CFTR
T13 construct: expressed in transfected cells; host or cells: Fisher rat thyroid (FRT) FlpIn cells, pcDNA5/FRT
Description: as §1, §2, §3, §4, §5

T10 sequence (P13569 whole entry E56K): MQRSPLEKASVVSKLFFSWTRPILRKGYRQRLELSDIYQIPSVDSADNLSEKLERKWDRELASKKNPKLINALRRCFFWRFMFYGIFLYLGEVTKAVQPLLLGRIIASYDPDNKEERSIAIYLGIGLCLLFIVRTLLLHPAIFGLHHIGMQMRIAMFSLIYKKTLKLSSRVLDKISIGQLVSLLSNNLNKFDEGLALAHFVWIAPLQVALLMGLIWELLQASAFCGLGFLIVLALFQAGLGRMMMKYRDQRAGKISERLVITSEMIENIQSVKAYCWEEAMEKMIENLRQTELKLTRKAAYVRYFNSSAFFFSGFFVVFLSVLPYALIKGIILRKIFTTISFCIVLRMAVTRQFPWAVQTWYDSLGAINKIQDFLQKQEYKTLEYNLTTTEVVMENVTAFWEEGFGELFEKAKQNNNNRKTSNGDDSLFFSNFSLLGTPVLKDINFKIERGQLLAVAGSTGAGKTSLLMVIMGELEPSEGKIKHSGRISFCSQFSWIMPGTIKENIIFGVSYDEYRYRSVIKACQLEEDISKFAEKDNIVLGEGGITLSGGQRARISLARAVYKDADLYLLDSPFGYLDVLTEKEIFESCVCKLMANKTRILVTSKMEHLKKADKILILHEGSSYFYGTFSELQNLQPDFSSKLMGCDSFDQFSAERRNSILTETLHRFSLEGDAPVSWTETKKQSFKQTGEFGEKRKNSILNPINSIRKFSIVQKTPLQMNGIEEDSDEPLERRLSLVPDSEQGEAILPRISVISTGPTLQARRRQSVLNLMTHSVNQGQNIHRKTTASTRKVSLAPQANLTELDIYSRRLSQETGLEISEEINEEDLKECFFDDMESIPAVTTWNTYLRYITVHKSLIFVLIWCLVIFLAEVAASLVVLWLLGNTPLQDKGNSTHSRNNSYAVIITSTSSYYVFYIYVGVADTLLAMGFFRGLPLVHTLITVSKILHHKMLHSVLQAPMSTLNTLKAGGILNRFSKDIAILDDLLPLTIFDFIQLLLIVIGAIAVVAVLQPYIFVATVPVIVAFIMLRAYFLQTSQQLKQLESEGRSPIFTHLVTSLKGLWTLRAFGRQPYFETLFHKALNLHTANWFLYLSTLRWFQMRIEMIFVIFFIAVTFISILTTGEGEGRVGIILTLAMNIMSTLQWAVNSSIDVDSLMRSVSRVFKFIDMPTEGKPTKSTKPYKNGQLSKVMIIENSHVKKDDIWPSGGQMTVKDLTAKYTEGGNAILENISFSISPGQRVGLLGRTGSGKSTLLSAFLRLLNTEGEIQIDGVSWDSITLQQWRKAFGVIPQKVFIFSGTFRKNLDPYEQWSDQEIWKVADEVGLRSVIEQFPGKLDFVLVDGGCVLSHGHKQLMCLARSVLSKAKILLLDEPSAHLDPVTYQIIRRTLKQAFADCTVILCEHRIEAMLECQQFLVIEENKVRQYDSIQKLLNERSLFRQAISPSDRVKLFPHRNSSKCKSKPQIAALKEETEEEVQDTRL
T2 sequence (P13569 whole entry S549N): as the sequence (P13569 whole entry E56K) above, with K56E, S549N counted along it
T3 sequence (P13569 whole entry S945L): as the sequence (P13569 whole entry E56K) above, with K56E, S945L counted along it
T11 sequence (P13569 whole entry R347H): as the sequence (P13569 whole entry E56K) above, with K56E, R347H counted along it
T12 sequence (P13569 whole entry D1270N): as the sequence (P13569 whole entry E56K) above, with K56E, D1270N counted along it
T13 sequence (P13569 whole entry F1074L): as the sequence (P13569 whole entry E56K) above, with K56E, F1074L counted along it
T1 sequence (P13569 whole entry D1152H): as the sequence (P13569 whole entry E56K) above, with K56E, D1152H counted along it
T6 sequence (P13569 whole entry R352Q): as the sequence (P13569 whole entry E56K) above, with K56E, R352Q counted along it
T7 sequence (P13569 whole entry R1070W): as the sequence (P13569 whole entry E56K) above, with K56E, R1070W counted along it
T8 sequence (P13569 whole entry S549R): as the sequence (P13569 whole entry E56K) above, with K56E, S549R counted along it
T5 sequence (P13569 whole entry P67L): as the sequence (P13569 whole entry E56K) above, with K56E, P67L counted along it
T4 sequence (P13569 whole entry S1255P): as the sequence (P13569 whole entry E56K) above, with K56E, S1255P counted along it
T9 sequence (P13569 whole entry G1244E): as the sequence (P13569 whole entry E56K) above, with K56E, G1244E counted along it

CC(C)(C)c1cc(C(C)(C)C)c(NC(=O)c2c[nH]c3ccccc3c2=O)cc1O [Compound 1, N-[2,4-bis(1,1-dimethylethyl)-5-hydroxyphenyl]-1,4-dihydro-4-oxoquinoline-3-carboxamide]
increase in chloride transport, relative to baseline chloride transport (human CFTR mutant D1152H): greater than or equal to 10% | increase in chloride transport, relative to baseline chloride transport (human CFTR mutant S549N): greater than 10 fold | increase in chloride transport, relative to baseline chloride transport (human CFTR mutant S945L): greater than or equal to 10% | increase in chloride transport, relative to baseline chloride transport (human CFTR mutant S1255P): greater than 10 fold | increase in chloride transport, relative to baseline chloride transport (human CFTR mutant P67L): greater than or equal to 10% | increase in chloride transport, relative to baseline chloride transport (human CFTR mutant R352Q): greater than or equal to 10% | increase in chloride transport, relative to baseline chloride transport (human CFTR mutant R1070W): greater than or equal to 10% | increase in chloride transport, relative to baseline chloride transport (human CFTR mutant S549R): greater than 10 fold | increase in chloride transport, relative to baseline chloride transport (human CFTR mutant G1244E): greater than 10 fold | increase in chloride transport, relative to baseline chloride transport (human CFTR mutant E56K): greater than or equal to 10% | increase in chloride transport, relative to baseline chloride transport (human CFTR mutant R347H): greater than or equal to 10% | increase in chloride transport, relative to baseline chloride transport (human CFTR mutant D1270N): greater than or equal to 10% | increase in chloride transport, relative to baseline chloride transport (human CFTR mutant F1074L): greater than or equal to 10%
